In patent US20250268816A1, “EXTENDED-RELEASE FORMULATION CONTAINING CRESOL” (UNIVERSITY OF MARYLAND, BALTIMORE, priority 2022, published 2025):
Where two headings read alike, the source gives them in different places.

Key:
[1] = ART838 release study from ISFGSs into PBS; assay type: physicochemical
Description: ISFGS turbidity increased with time and with ART838 loading content, and all loaded ISDs […]. The diffusion of the solvents from the depot in the first week was not sufficient for ART838 to diffuse out of the ISFGS due to the hydrophobic interactions between ART838 and PLGA/PLA polymers. The ISFGS system is able to continually release ART838 for 1 month and the ISD form can be tuned to control ART838 release profiles.
This delayed release profile might be beneficial to potentiate antitumor responses initiated by other drug agents. Therefore it is contemplated that the polymeric formulations of the ISFGS system can be altered to tune the ART838 release curve, aiming to modulate the initiation of release while maintaining the stable release observed here. In addition, the ISFGSs can be used with other dimeric ART analogs or other drug compounds, both for administration and for research purposes, for example to analyze cytotoxicity and bioeffects of the loaded ISFGSs using in vitro cell culture models.

[2] = in mice; cited from earlier work
[3] = Drug release study from the in situ gelling system (ISFGSs); assay type: physicochemical
Procedure: FIG. 29 is a graph showing the results of a dexamethasone release study using 6 wt % Dex and 24 wt % Polymer 80 μL.
FIGS. 30A and 30B are graphs showing the effect of polymer composition on the cumulative release of remdesivir from ISFGSs; 3 wt % 80 and 160 uL-24 wt %.
FIGS. 31A and 31B are graphs showing the effect of polymer composition on the cumulative release of GS-441524 from 80 μL of ISFGSs.
FIGS. 32A and 32B are graphs showing the effect of polymer composition on the cumulative release of GS-441524 from 160 μL of ISFGSs.
FIG. 33A and FIG. 33B are a set of graphs showing the effect of polymer composition and solution volume on the cumulative release of artemisinin from ISFGSs.
FIGS. 37A and 37B are graphs showing the cumulative release of gilteritinib from ISFGSs: Gilteritinib 4 wt % Release 80 μL PLGA 50/50 depots.

[4] = human patients; cited from earlier work
[5] = tested on: feline infectious peritonitis (FIP); settings: cited from earlier work
[6] = in vivo; cited from earlier work
[7] = In vitro cumulative release of insulin from ISFGSs; assay type: physicochemical; settings: for time of continuous insulin release: from ISFGSs
Description: The effect of formulation volume in vitro was also studied.

diabetic rats = test: Blood glucose level lowering after subcutaneous injection in diabetic rats; assay type: in vivo; settings: subcutaneously injected insulin, 5 IU, within 4 h after the injection
Description: The effect of subcutaneously injected insulin as the therapeutic agent component of the subject drug delivery system on diabetic rats was also studied. More specifically, the effect of an insulin depot prepared and delivered in accordance with the teachings of the subject invention on the cumulative release of insulin was studied.

Row | Compound | release from the in situ gelling system (in words) [3] | half-life [6] [min] | time of continuous insulin release [7] [days] | other results
1 | C[C@@H]1CCC2[C@@H](C)[C@@H](CC(COP(=O)(Oc3ccccc3)Oc3ccccc3)C[C@H]3O[C@@H]4O[C@@]5(C)CCC6[C@H](C)CCC([C@H]3C)[C@]64OO5)O[C@@H]3O[C@@]4(C)CCC1[C@@]23OO4 (stereo partly drawn) [ART838] | – | – | – | time of continual ART838 release from the ISFGS system [1]: 1 month; half-life [2]: 191 min
2 | N#C[C@@]1(c2ccc3c(N)ncnn23)O[C@H](CO)[C@@H](O)[C@H]1O [GS-441524] | sustained release | – | – | half-life [4]: around 24 hours; activity against FIP in cell culture (in words) [5]: equivalent
3 | CCC(CC)COC(=O)[C@H](C)N[P@](=O)(OC[C@H]1O[C@@](C#N)(c2ccc3c(N)ncnn23)[C@H](O)[C@@H]1O)Oc1ccccc1 [Remdesivir] | – | 53.4 | – | –
4 | C[C@@H]1CC[C@H]2[C@@H](C)C(=O)O[C@@H]3O[C@@]4(C)CC[C@@H]1[C@]32OO4 [artemisinin] | sustained release | – | – | –
5 | Degludec | – | – | 7 | relative insulin release rate (in words) ([7]; comparison between ISFGS formulations): slower
6 | insulin | – | 4 to 6 | 7 | blood glucose level (diabetic rats): about 100 mg·dL^−1
